Assay results as given in patent US9428492B2, “Secondary alcohol substituted triazoles as PDE10 inhibitors” (Merck Sharp & Dohme Corp., priority 2012, dated 2016).

Molecular target: human PDE10A2 (Homo sapiens (Human), UniProt Q9Y233)
Test: PDE10 fluorescence polarization (IMAP FP) inhibition assay
Assay type: biochemical
Conditions: read-out: PDE10a Ki
Description: The activity of the compounds in accordance with the present invention as PDE10 inhibitors may be readily determined without undue experimentation using a fluorescence polarization (FP) methodology that is well known in the art (Huang, W., et al., J. Biomol Screen, 2002, 7: 215).
In a typical experiment the PDE10 inhibitory activity of the compounds of the present invention was determined in accordance with the following experimental method. PDE10A2 was amplified from human fetal brain cDNA (Clontech, Mountain View, Calif.) using a forward primer corresponding to nucleotides 56-77 of human PDE10A2 (Accession No. AF127480, Genbank Identifier 4894716), containing a Kozak consensus sequence, and a reverse primer corresponding to nucleotides 2406-2413 of human PDE10A2 (Accession No. AF127480, Genbank Identifier 4894716). Amplification with Easy-A polymerase (Stratagene, La Jolla, Calif.) was 95° C. for 2 minutes followed by thirty three cycles of 95° C. for 40 seconds, 55° C. for 30 seconds, and 72° C. for 2 minutes 48 seconds. Final extension was 72° C. for 7 minutes. The PCR product was TA cloned into pcDNA3.2-TOPO (Invitrogen, Carlsbad, Calif.) according to standard protocol. AD293 cells with 70-80% confluency were transiently transfected with human PDE10A2/pcDNA3.2-TOPO using Lipofectamine 2000 according to manufacturer specifications (Invitrogen, Carlsbad, Calif.). Cells were harvested 48 hours post-transfection and lysed by sonication (setting 3, 10×5 sec pulses) in a buffer containing 20 mM HEPES, 1 mM EDTA and protease inhibitor cocktail (Roche). Lysate was collected by centrifugation at 75,000×g for 20 minutes. Supernatant containing the cytoplasmic fraction was used for evaluation of PDE10A2 activity. The fluorescence polarization assay for cyclic nucleotide phosphodiesterases was performed using an IMAP® FP kit supplied by Molecular Devices, Sunnyvale, Calif. (product # R8139). IMAP® technology has been applied previously to phosphodiesterase assays (Huang, W., et al., J. Biomol Screen, 2002, 7: 215). Assays were performed at room temperature in 384-well microtiter plates with an incubation volume of 20.2 μL. Solutions of test compounds were prepared in DMSO and serially diluted with DMSO to yield 8 μL of each of 10 solutions differing by 3-fold in concentration, at 32 serial dilutions per plate. […] 0% of inhibition is determined by using DMSO (1% final concentrations).
A Labcyte Echo 555 (Labcyte, Sunnyvale, Calif.) is used to dispense 200 nL from each well of the titration plate to the 384 well assay plate. A solution of enzyme (1/1600 dilution from aliquots; sufficient to produce 20% substrate conversion) and a separate solution of FAM-labeled cAMP PDE from Molecular Devices (product # R7506), at a final concentration of 50 nM are made in the assay buffer (10 mM Tris HCl, pH 7.2, 10 mM MgCl2, 0.05% NaN3 0.01% Tween-20, and 1 mM DTT). The enzyme and the substrate are then added to the assay plates in two consecutive additions of 10 μL, and then shaken to mix. The reaction is allowed to proceed at room temperature for 30 minutes. […] The enzymatic reaction is stopped by addition of 60 μL of the binding solution to each well of the assay plates and the plates are sealed and shaken for 10 seconds. The plate was incubated at room temperature for at least one hour prior to determining the fluorescence polarization (FP). The parallel and perpendicular fluorescence of each well of the plate was measured using a Perkin Elmer EnVision™ plate reader (Waltham, Mass.).
Fluorescence polarization (mP) was calculated from the parallel (S) and perpendicular (P) fluorescence of each sample well and the analogous values for the median control well, containing only substrate (So and Po), using the following equation: Polarization (mP)=1000*(S/So−P/Po)/(S/So+P/Po).
Dose-inhibition profiles for each compound were characterized by fitting the mP data to a four-parameter equation given below.

Chain of human PDE10A2 (Q9Y233 267-1055): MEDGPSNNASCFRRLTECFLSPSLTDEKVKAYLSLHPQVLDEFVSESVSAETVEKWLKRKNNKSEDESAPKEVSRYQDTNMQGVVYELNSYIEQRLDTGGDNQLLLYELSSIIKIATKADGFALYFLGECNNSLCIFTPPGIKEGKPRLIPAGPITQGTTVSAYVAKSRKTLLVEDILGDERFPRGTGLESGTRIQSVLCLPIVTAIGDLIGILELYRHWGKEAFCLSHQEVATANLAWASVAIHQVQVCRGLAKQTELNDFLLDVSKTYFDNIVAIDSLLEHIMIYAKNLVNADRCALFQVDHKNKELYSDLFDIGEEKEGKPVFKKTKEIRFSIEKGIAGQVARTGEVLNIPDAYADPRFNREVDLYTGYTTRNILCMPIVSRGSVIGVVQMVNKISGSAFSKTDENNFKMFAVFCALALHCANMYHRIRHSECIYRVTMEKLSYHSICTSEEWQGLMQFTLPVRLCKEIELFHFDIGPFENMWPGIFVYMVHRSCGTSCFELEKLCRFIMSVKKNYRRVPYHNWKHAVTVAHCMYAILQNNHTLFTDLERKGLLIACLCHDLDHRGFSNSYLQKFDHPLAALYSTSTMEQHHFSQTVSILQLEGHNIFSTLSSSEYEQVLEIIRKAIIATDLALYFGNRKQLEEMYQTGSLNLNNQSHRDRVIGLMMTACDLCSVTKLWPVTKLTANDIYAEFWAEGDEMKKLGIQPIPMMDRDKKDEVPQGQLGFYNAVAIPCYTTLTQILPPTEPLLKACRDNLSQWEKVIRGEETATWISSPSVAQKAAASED

## Cc1nc(N2CC(c3nc4ccccc4n3C)C2)cc(-n2nc(C)nc2C(O)C(F)(F)F)n1 (racemic) [Example 3, 2,2,2-trifluoro-1-(3-methyl-1-(2-methyl-6-(3-(1-methyl-1H-benzo[d]imidazol-2-yl)azetidin-1-yl)pyrimidin-4-yl)-1H-1,2,4-triazol-5-yl)ethanol]
  Ki: 110 pM

## Cc1nc(N2CC(c3nc4ccccc4n3C)C2)cc(-n2nc(C)nc2C(O)C(F)(F)F)n1 (single isomer, unassigned) [Example 3a, 2,2,2-trifluoro-1-(3-methyl-1-(2-methyl-6-(3-(1-methyl-1H-benzo[d]imidazol-2-yl)azetidin-1-yl)pyrimidin-4-yl)-1H-1,2,4-triazol-5-yl)ethanol]
  Ki: 1000 pM

## CCC(O)c1nc(C)nn1-c1cc(N2CC(c3nc4ccccc4n3C)C2)nc(C)n1 (single isomer, unassigned) [Example 4a, 1-(3-methyl-1-(2-methyl-6-(3-(1-methyl-1H-benzo[d]imidazol-2-yl)azetidin-1-yl)pyrimidin-4-yl)-1H-1,2,4-triazol-5-yl)propan-1-ol]
  Ki: 1800 pM

## Cc1nc(N2CC(c3nc4ccccc4n3C)C2)cc(-n2nc(C)nc2C(O)C(C)C)n1 (single isomer, unassigned) [Example 5a, 2-methyl-1-(3-methyl-1-(2-methyl-6-(3-(1-methyl-1H-benzo[d]imidazol-2-yl)azetidin-1-yl)pyrimidin-4-yl)-1H-1,2,4-triazol-5-yl)propan-1-ol]
  Ki: 340 pM

## Cc1nc(N2CC(c3nc4ccccc4n3C)C2)cc(-n2nc(C)nc2C(O)C(C)C)n1 (single isomer, unassigned) [Example 5b, 2-methyl-1-(3-methyl-1-(2-methyl-6-(3-(1-methyl-1H-benzo[d]imidazol-2-yl)azetidin-1-yl)pyrimidin-4-yl)-1H-1,2,4-triazol-5-yl)propan-1-ol]
  Ki: 770 pM

## Cc1nc(N2CC(c3nc4ccccc4n3C)C2)cc(-n2nc(C)nc2C(O)C2CC2)n1 (single isomer, unassigned) [Example 6b, cyclopropyl(3-methyl-1-(2-methyl-6-(3-(1-methyl-1H-benzo[d]imidazol-2-yl)azetidin-1-yl)pyrimidin-4-yl)-1H-1,2,4-triazol-5-yl)methanol]
  Ki: 2600 pM

## Cc1nc(N2CC(c3nc4ccccc4n3C)C2)cc(-n2nc(C)nc2C(O)CC(F)(F)F)n1 (single isomer, unassigned) [Example 7a, 3,3,3-trifluoro-1-(3-methyl-1-(2-methyl-6-(3-(1-methyl-1H-benzo[d]imidazol-2-yl)azetidin-1-yl)pyrimidin-4-yl)-1H-1,2,4-triazol-5-yl)propan-1-ol]
  Ki: 4500 pM

## Cc1nc(N2CC(c3nc4ccccc4n3C)C2)cc(-n2nc(C)nc2C(O)CC(F)(F)F)n1 (single isomer, unassigned) [Example 7b, 3,3,3-trifluoro-1-(3-methyl-1-(2-methyl-6-(3-(1-methyl-1H-benzo[d]imidazol-2-yl)azetidin-1-yl)pyrimidin-4-yl)-1H-1,2,4-triazol-5-yl)propan-1-ol]
  Ki: 2500 pM

## Cc1nc(C(C)O)n(-c2cc(N3CC(c4nc5ccccc5n4C)C3)nc(C(F)(F)F)n2)n1 (single isomer, unassigned) [Example 8a, 1-(3-methyl-1-(6-(3-(1-methyl-1H-benzo[d]imidazol-2-yl)azetidin-1-yl)-2-(trifluoromethyl)pyrimidin-4-yl)-1H-1,2,4-triazol-5-yl)ethanol]
  Ki: 530 pM

## Cc1nc(C(C)O)n(-c2cc(N3CC(c4nc5ccccc5n4C)C3)nc(C(F)(F)F)n2)n1 (single isomer, unassigned) [Example 8b, 1-(3-methyl-1-(6-(3-(1-methyl-1H-benzo[d]imidazol-2-yl)azetidin-1-yl)-2-(trifluoromethyl)pyrimidin-4-yl)-1H-1,2,4-triazol-5-yl)ethanol]
  Ki: 1000 pM

## Cc1nc(C(C)O)n(-c2cc(N3CC(c4nc5ccccc5n4C)C3)nc(C3CC3)n2)n1 (single isomer, unassigned) [Example 10a, 1-(1-(2-cyclopropyl-6-(3-(1-methyl-1H-benzo[d]imidazol-2-yl)azetidin-1-yl)pyrimidin-4-yl)-3-methyl-1H-1,2,4-triazol-5-yl)ethanol]
  Ki: 130 pM

## Cc1nc(C(C)O)n(-c2cc(N3CC(c4nc5ccccc5n4C)C3)nc(C3CC3)n2)n1 (single isomer, unassigned) [Example 10b, 1-(1-(2-cyclopropyl-6-(3-(1-methyl-1H-benzo[d]imidazol-2-yl)azetidin-1-yl)pyrimidin-4-yl)-3-methyl-1H-1,2,4-triazol-5-yl)ethanol]
  Ki: 390 pM

## Cc1nc(N2CC(c3nc4ccccc4n3C)C2)cc(-n2nc(C)nc2C(O)C(F)F)n1 (single isomer, unassigned) [Example 11a, 2,2-difluoro-1-(3-methyl-1-(2-methyl-6-(3-(1-methyl-1H-benzo[d]imidazol-2-yl)azetidin-1-yl)pyrimidin-4-yl)-1H-1,2,4-triazol-5-yl)ethanol]
  Ki: 650 pM

## Cc1nc(N2CC(c3nc4ccccc4n3C)C2)cc(-n2nc(C)nc2C(O)C(F)F)n1 (single isomer, unassigned) [Example 11b, 2,2-difluoro-1-(3-methyl-1-(2-methyl-6-(3-(1-methyl-1H-benzo[d]imidazol-2-yl)azetidin-1-yl)pyrimidin-4-yl)-1H-1,2,4-triazol-5-yl)ethanol]
  Ki: 3000 pM

## Cc1nc(C2C[C@H]2c2nc3ccccc3n2C)cc(-n2nc(C)nc2C(O)C(F)(F)F)n1 (single isomer, unassigned) [Example 20a]
  Ki: 580 pM

## Cc1nc(C2C[C@H]2c2nc3ccccc3n2C)cc(-n2nc(C)nc2C(O)C(F)(F)F)n1 (single isomer, unassigned) [Example 20b]
  Ki: 920 pM

## CCC(O)c1nc(C)nn1-c1cc(N2CC(c3nc4ccccc4n3C)C2)nc(C)n1 (stereo not shown) [Example 4, 1-(3-methyl-1-(2-methyl-6-(3-(1-methyl-1H-benzo[d]imidazol-2-yl)azetidin-1-yl)pyrimidin-4-yl)-1H-1,2,4-triazol-5-yl)propan-1-ol]
  Ki: 510 pM

## Cc1nc(N2CC(c3nc4ccccc4n3C)C2)cc(-n2nc(C)nc2C(O)C(C)C)n1 (stereo not shown) [Example 5, 2-methyl-1-(3-methyl-1-(2-methyl-6-(3-(1-methyl-1H-benzo[d]imidazol-2-yl)azetidin-1-yl)pyrimidin-4-yl)-1H-1,2,4-triazol-5-yl)propan-1-ol]
  Ki: 410 pM

## Cc1nc(N2CC(c3nc4ccccc4n3C)C2)cc(-n2nc(C)nc2C(O)C2CC2)n1 (stereo not shown) [Example 6, cyclopropyl(3-methyl-1-(2-methyl-6-(3-(1-methyl-1H-benzo[d]imidazol-2-yl)azetidin-1-yl)pyrimidin-4-yl)-1H-1,2,4-triazol-5-yl)methanol]
  Ki: 360 pM

## Cc1nc(N2CC(c3nc4ccccc4n3C)C2)cc(-n2nc(C)nc2C(O)CC(F)(F)F)n1 (stereo not shown) [Example 7, 3,3,3-trifluoro-1-(3-methyl-1-(2-methyl-6-(3-(1-methyl-1H-benzo[d]imidazol-2-yl)azetidin-1-yl)pyrimidin-4-yl)-1H-1,2,4-triazol-5-yl)propan-1-ol]
  Ki: 3200 pM

## Cc1nc(C(C)O)n(-c2cc(N3CC(c4nc5ccccc5n4C)C3)nc(C(F)(F)F)n2)n1 (stereo not shown) [Example 8, 1-(3-methyl-1-(6-(3-(1-methyl-1H-benzo[d]imidazol-2-yl)azetidin-1-yl)-2-(trifluoromethyl)pyrimidin-4-yl)-1H-1,2,4-triazol-5-yl)ethanol]
  Ki: 830 pM

## COc1nc(N2CC(c3nc4ccccc4n3C)C2)cc(-n2nc(C)nc2C(C)O)n1 (stereo not shown) [Example 9, 1-(1-(2-methoxy-6-(3-(1-methyl-1H-benzo[d]imidazol-2-yl)azetidin-1-yl)pyrimidin-4-yl)-3-methyl-1H-1,2,4-triazol-5-yl)ethanol]
  Ki: 1200 pM
